How the values were obtained:
Assay type in all cases: cell-based
c-Myc = molecular target: T1, c-Myc (Homo sapiens, UniProt P01106); assay: HSP60 and ClpP expression after c-Myc inhibitor; conditions: LNCaP and PC-3 cells, 50 μM, 24 hrs
T1 construct: endogenous in cells; host or cells: LNCaP and PC-3 cells
Description: FIG. 4. HSP60 regulate ClpP expression but not vice versa. (A) HSP60 and ClpP stable knockdown LNCaP and PC-3 cells were generated using shRNA and analyzed for HSP60 and ClpP expression levels. Actin serves as loading control. (B-C) HSP60 and ClpP knockdown LNCaP and PC-3 cells were crosslinked with EGS, lysed and protein samples run on an SDS-PAGE gel as described in material and methods. Membranes were probed with either ClpP or HSP60 antibody to analyze the oligomerization status of these proteins. (D) Enzymatic activity of ClpP was assayed from mitochondrial pellets isolated from HSP60 knockdown PC-3 cells and DU145 Hsp60^+/− cells. (E) HSP60 was overexpressed in PC-3 cells and analyzed for ClpP expression. Actin serves as loading control. (F) ClpP was overexpressed in LNCaP, DU145 and PC-3 cells and analyzed for HSP60 expression. Actin serves as loading control. […] Whole cell lysates were prepared and analyzed for HSP60 and ClpP expression. […] (H) c-Myc binding efficiency with ClpP promoter in HSP60 knockdown LNCaP and PC-3 cells was determined using chromatin immunoprecipitation (ChIP) assay using specific primers. […]
HSP60 regulates expression of ClpP via c-Myc but not vice versa. […] To confirm that c-Myc is a regulator for ClpP expression, PCa cells were treated with c-Myc pharmacological inhibitor 10058-F4 and analyzed ClpP expression levels. […]

HSP60-silenced cells = assay: Cell death in HSP60-silenced cells versus mock cells
Description: Although cancer cells prefer aerobic glycolysis for energy, continual production of ATP via OXPHOS system is still required for rapid cancer cell survival and growth. ClpP along with LonP1 degrades Complex I during stress to alleviate mtROS, thus promoting cell survival. HSP60-silencing or inhibition of HSP60-ClpP interaction by DCEM1 contribute to mtROS buildup and mitotoxicity due to inhibition of ClpP function or ClpP-deficiency because ClpP is no longer available/functional in alleviating mtROS production and degrading unfolded protein in mitochondria leading to collapse of mitochondrial function and homeostasis. […] Mitochondrial proteases such as ClpP trigger mitochondria-to-nuclear signaling pathway and UPR^mt activation. Inhibition of ClpP expression and function by HSP60-silencing or HSP60 inhibitor such as DCEM1 may abolish mito-nuclear crosstalk leading to inhibition of retrograde signaling. Inhibition of HSP60 renders mitochondria in a fragile and dysfunctional state leading to enhanced apoptosis and blockage of cellular proliferation. Therefore, chemotherapeutic agents along with HSP60 inhibition may provide a novel combination for therapeutic benefits in PCa.

[1] = tested on: mitochondrial chaperonin activity in PCa cells; assay: Mitochondrial Chaperonin Activity Assay (MiCAA); conditions: 24 h
Protocol: FIG. 10. Mitochondrial Chaperonin Activity Assay (MiCAA). PCa cells were treated with either DCEM1 (A) or ETB or Mizoribine (B) for 24 h and mitochondrial (Mito) chaperonin activity was analyzed as described in material and methods. In another experiment, PCa cells were transfected with siRNA to target HSP60 mRNA and mitochondrial chaperonin activity was analyzed (C). In (A), the bars in each series from left to right are DMSO and DCEM1. In (B), the bars in each series from left to right are DMSO, ETB, and MZR. In (C), the bars in each series from left to right are siMock, siHSP60-1, and siHSP60-2.
Since HSP60 chaperonin system is crucial for maintaining mitochondrial homeostasis in normal cells, a novel method, Mitochondrial Chaperonin Activity Assay (MiCAA), was developed to analyze chaperonin activity in live cells using flow cytometry to evaluate whether DCEM1 modulates mitochondrial chaperonin activity.

LNCaP and PC-3 cells = assay: Rescue of DCEM1-induced cell death by ROS quenchers (MTT cell viability)
Protocol: FIG. 6. Pharmacological inhibition of HSP60-ClpP interaction induces UPR^mt and PCa cell death. (A) Docking of DCEM1 into apical domain of HSP60. (B) LNCaP and PC-3 cells were treated with DCEM1 for 24 hours and HSP60-ClpP interaction was analyzed by co-immunoprecipitation assay. (C) LNCaP and PC-3 cells were treated with DCEM1 for 24 hours and mitoROS levels were analyzed by flow cytometry using mitoSOX dye. (D) LNCaP and PC-3 cells were treated with DCEM1 for 24 hours and poly-Ub protein levels were analyzed by western blotting. (E) LNCaP and PC-3 cells were treated with DCEM1 for 24 and 48 hours and apoptotic cell populations were analyzed by flow cytometry using Annexin V FITC/PI method as explained in materials and methods. In (E) top panel, the bars in each series from left to right are control, 5, 10, and 20, and in (E) bottom panel, the bars in each series from left to right are DMSO, 5, 10, and 20. (F) LNCaP and PC-3 cells were treated with DCEM1 for 24 and 48 hours and lysates were prepared and analyzed for DEVDase activity using specific peptide substrate. […] (G) LNCaP and PC-3 cells were pre-treated with SKQ1 followed by DCEM1 treatment and analyzed for cell viability by MTT assay. (H) LNCaP and PC-3 cells were treated with either DCEM1 or H2O2 (200 μM) for 24 hours and total DNA were isolated and analyzed for mtDNA damage as described in materials and methods. […]

T1 sequence (P01106 whole entry): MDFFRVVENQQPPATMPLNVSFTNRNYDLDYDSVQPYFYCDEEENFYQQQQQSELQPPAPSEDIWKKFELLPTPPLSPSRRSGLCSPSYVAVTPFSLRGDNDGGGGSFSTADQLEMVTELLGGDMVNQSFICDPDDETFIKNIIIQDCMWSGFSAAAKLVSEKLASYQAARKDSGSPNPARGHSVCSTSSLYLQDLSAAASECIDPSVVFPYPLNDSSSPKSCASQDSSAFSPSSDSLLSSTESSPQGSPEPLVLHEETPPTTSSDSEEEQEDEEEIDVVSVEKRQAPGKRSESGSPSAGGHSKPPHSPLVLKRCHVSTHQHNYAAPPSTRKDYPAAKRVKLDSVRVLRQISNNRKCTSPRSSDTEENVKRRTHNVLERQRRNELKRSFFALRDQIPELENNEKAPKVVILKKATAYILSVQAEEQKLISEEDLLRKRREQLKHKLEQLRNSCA

CCc1ccc(/C=C2/SC(=S)NC2=O)cc1 [10058-F4]
ClpP expression (c-Myc): downregulate ClpP expression
HSP60 expression (c-Myc): without affecting HSP60 expression

CC(=O)O[C@@]12CO[C@@H]1C[C@H](O)[C@@]1(C)C(=O)[C@H](O)C3=C(C)[C@@H](OC(=O)[C@H](O)[C@@H](NC(=O)OC(C)(C)C)c4ccccc4)C[C@@](O)([C@@H](OC(=O)c4ccccc4)[C@H]21)C3(C)C [docetaxel]
cell death induction in HSP60-silenced cells compared to mock cells (HSP60-silenced cells): more efficacious

NC(=O)c1ncn([C@@H]2O[C@H](CO)[C@@H](O)[C@H]2O)c1O [mizoribine, reference compound]
mitochondrial chaperonin activity [1]: significantly inhibited

CC1=C(C)C(=O)C(CCCCCCCCCC[P+](c2ccccc2)(c2ccccc2)c2ccccc2)=CC1=O [SKQ1]
effect of mitoROS quencher pre-treatment on DCEM1-induced cell death (LNCaP and PC-3 cells; LNCaP and PC-3 cells pre-treated with SKQ1 followed by DCEM1, MTT assay): inhibited DCEM1—induced cell death

CC(=O)N[C@@H](CS)C(=O)O [NAC]
effect of NAC pre-treatment on DCEM1-induced cell death (LNCaP and PC-3 cells; PCa cells, data not shown): antagonizes DCEM1-induced cell death
